Measurements as given in patent US11292788B2, “IL-17 and IFN-gamma inhibition for the treatment of autoimmune diseases and chronic inflammation” (Immunic AG, priority 2017, dated 2022).

Key:
[1] = test system: IL-17A; assay: Cytokine assay: IL-17A production by human PBMC stimulated with PHA; type: cell-based; conditions: Homo sapiens, PBMC, IC50 class, read-out: IL-17A Inhib.
Procedure, shortened: (§1)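 Compounds were titrated semilogarithmically for IC50, or screened at 10, 1, 0.1 and 0.01 μM, on healthy-donor PBMC stimulated for 48 h with 2 μg/ml PHA at 1×10^5 cells/well. Cytokines in culture supernatants were then quantified by ELISA or Luminex bead assay.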

[2] = Microsomal stability: incubation with human liver microsomes, residual parent compound by HPLC-MS/MS; type: in vitro ADME; conditions: pH 7.4; human liver microsomes, 1 μM compound, 0.5 mg/ml HLM, 37° C., up to 60 min; read-out: t1/2 hLM
Description: Metabolic stability of compounds of the present invention was determined by incubation with human liver microsomes and subsequent determination of residual amount of the respective compound (“parent compound”) by HPLC-MS/MS.
In order to achieve this, in a final reaction volume of 1000 μl, each compound was incubated at a final concentration of 1 μM with 0.5 mg/ml human liver microsomes (HLM Pool 50 Donors, 20 mg/ml, BD Gentest, #452156, LotNr 88114) in 0.1 M Potassium phosphate buffer at pH 7.4, with a cofactor in form of a NADPH regenerating system (Promega, #V9510) according to the manufacturers' specifications. The final DMSO concentration in each sample was 0.4%. The incubation was performed at 37° C. under shaking conditions (Thermomixer, 1400 rpm) for different time intervals up to 60 min. To stop the reaction, for each time point 200 μl of the reaction were taken out and 200 μl ice-cold acetonitrile was added. Then, the samples were centrifuged (4° C., 14000*g for 15 min). The supernatant was analyzed for residual parent compound concentration and scanned for metabolites using HPLC-MS/MS. By using optimized MS methods for each compound, the peak area under curve for the compound specific signal is determined. The change of the peak areas over the assay time of 60 min resemble the remaining parent compound in % of T0. By these points, a balancing line was set. The half-time, as well as the clearance, can then be calculated on the basis of the slope.

[3] = test system: INF-γ; assay: Cytokine assay: INF-γ production by human PBMC stimulated with PHA; type: cell-based; conditions: Homo sapiens, PBMC, IC50 class, read-out: IFN-gamma Inhib.
Procedure, shortened: as §1

[4] = test system: IL-17F; assay: Cytokine assay: IL-17F production by human PBMC stimulated with PHA; type: cell-based; conditions: Homo sapiens, PBMC, IC50 class, read-out: IL-17F Inhib.
Procedure, shortened: as §1

## C[C@]1(O)C[C@@H](n2ncc(-c3onc(-c4cccc(OCCN5CCOCC5)c4Cl)c3COC3CC3)c2C(F)(F)F)C1 [Example 92, 3-(4-(3-(2-chloro-3-(2-morpholinoethoxy)phenyl)-4-(cyclopropoxymethyl)isoxazol-5-yl)-5-(trifluoromethyl)-1H-pyrazol-1-yl)-1-methylcyclobutan-1-ol]
[1]
  IC50: < 0.05 µM
[2]
  half-life at 1 μM: 2 to 9.99 min
[3]
  IC50: < 0.05 µM
[4]
  IC50: < 0.05 µM

## C[C@@H](O)Cn1ncc(-c2onc(-c3c(F)cccc3Cl)c2-c2ncccn2)c1C(F)(F)F [Example 97, (R)-1-(4-(3-(2-chloro-6-fluorophenyl)-4-(pyrimidin-2-yl)isoxazol-5-yl)-5-(trifluoromethyl)-1H-pyrazol-1-yl)propan-2-ol]
[1]
  IC50: < 0.05 µM
[2]
  half-life at 1 μM: 40 to 100 min
[3]
  IC50: < 0.05 µM
[4]
  IC50: < 0.05 µM

## C[C@]1(O)C[C@@H](n2ncc(-c3onc(-c4c(F)cccc4Cl)c3-c3ncccn3)c2C(F)(F)F)C1 [Example 98, 3-(4-(3-(2-chloro-6-fluorophenyl)-4-(pyrimidin-2-yl)isoxazol-5-yl)-5-(trifluoromethyl)-1H-pyrazol-1-yl)-1-methylcyclobutanol]
[1]
  IC50: < 0.05 µM
[2]
  half-life at 1 μM: > 100 min
[3]
  IC50: < 0.05 µM
[4]
  IC50: < 0.05 µM

## C[C@]1(O)C[C@@H](n2ncc(-c3onc(-c4c(F)cccc4Cl)c3-c3cnccn3)c2C(F)(F)F)C1 [Example 100, 3-{4-[3-(2-chloro-6-fluorophenyl)-4-(pyrazin-2-yl)-1,2-oxazol-5-yl]-5-(trifluoromethyl)-1H-pyrazol-1-yl}-1-methylcyclobutan-1-ol]
[1]
  IC50: 0.05 to 0.5 µM
[2]
  half-life at 1 μM: > 100 min
[3]
  IC50: < 0.05 µM
[4]
  IC50: < 0.05 µM

## COc1cccc(-c2noc(-c3cnn([C@H]4C[C@@](C)(O)C4)c3C(F)(F)F)c2-c2ncccn2)c1Cl [Example 103, 3-{4-[3-(2-chloro-3-methoxyphenyl)-4-(pyrimidin-2-yl)-1,2-oxazol-5-yl]-5-(trifluoromethyl)-1H-pyrazol-1-yl}-1-methylcyclobutan-1-ol]
[1]
  IC50: < 0.05 µM
[2]
  half-life at 1 μM: > 100 min
[3]
  IC50: < 0.05 µM
[4]
  IC50: < 0.05 µM

## CC(C)(O)Cn1ncc(-c2onc(-c3c(F)cccc3Cl)c2-c2ncccn2)c1C(F)(F)F [Example 118, 1-{4-[3-(2-chloro-6-fluorophenyl)-4-(pyrimidin-2-yl)-1,2-oxazol-5-yl]-5-(trifluoromethyl)-1H-pyrazol-1-yl}-2-methylpropan-2-ol]
[1]
  IC50: < 0.05 µM
[2]
  half-life at 1 μM: > 100 min
[3]
  IC50: < 0.05 µM
[4]
  IC50: < 0.05 µM

## COc1cccc(-c2noc(-c3cnn(CCC(C)(C)O)c3C(F)(F)F)c2-c2ncccn2)c1Cl [Example 121, 4-{4-[3-(2-chloro-3-methoxyphenyl)-4-(pyrimidin-2-yl)-1,2-oxazol-5-yl]-5-(trifluoromethyl)-1H-pyrazol-1-yl}-2-methylbutan-2-ol]
[1]
  IC50: < 0.05 µM
[2]
  half-life at 1 μM: > 100 min
[3]
  IC50: < 0.05 µM
[4]
  IC50: 0.05 to 0.5 µM

## COc1cccc(-c2noc(-c3cnn(CCC(C)(C)O)c3C)c2-c2ncccn2)c1Cl [Example 124, 4-{4-[3-(2-chloro-3-methoxyphenyl)-4-(pyrimidin-2-yl)-1,2-oxazol-5-yl]-5-methyl-1H-pyrazol-1-yl}-2-methylbutan-2-ol]
[1]
  IC50: < 0.05 µM
[2]
  half-life at 1 μM: > 100 min
[3]
  IC50: < 0.05 µM
[4]
  IC50: < 0.05 µM

## COc1ccc(Cl)c(-c2noc(-c3cnn(CCC(C)(C)O)c3C)c2-c2ncccn2)c1Cl [Example 125, 4-{4-[3-(2,6-dichloro-3-methoxyphenyl)-4-(pyrimidin-2-yl)-1,2-oxazol-5-yl]-5-methyl-1H-pyrazol-1-yl}-2-methylbutan-2-ol]
[1]
  IC50: 0.05 to 0.5 µM
[2]
  half-life at 1 μM: > 100 min
[3]
  IC50: < 0.05 µM
[4]
  IC50: < 0.05 µM

## Cc1c(-c2onc(-c3c(F)cccc3Cl)c2-c2ncccn2)cnn1CCC(C)(C)O [Example 127, 4-{4-[3-(2-chloro-6-fluorophenyl)-4-(pyrimidin-2-yl)-1,2-oxazol-5-yl]-5-methyl-1H-pyrazol-1-yl}-2-methylbutan-2-ol]
[1]
  IC50: 0.05 to 0.5 µM
[2]
  half-life at 1 μM: > 100 min
[3]
  IC50: < 0.05 µM
[4]
  IC50: 0.05 to 0.5 µM

## CC(C)(O)CCn1ncc(-c2onc(-c3cccc(OCCN4CCOCC4)c3Cl)c2-c2ncccn2)c1C(F)(F)F [Example 133, 4-[4-(3-{2-chloro-3-[2-(morpholin-4-yl)ethoxy]phenyl}-4-(pyrimidin-2-yl)-1,2-oxazol-5-yl)-5-(trifluoromethyl)-1H-pyrazol-1-yl]-2-methylbutan-2-ol]
[1]
  IC50: < 0.05 µM
[2]
  half-life at 1 μM: 2 to 9.99 min
[3]
  IC50: < 0.05 µM
[4]
  IC50: < 0.05 µM

## CN(C)CCOc1cccc(-c2noc(-c3cnn(CCC(C)(C)O)c3C(F)(F)F)c2-c2ncccn2)c1Cl [Example 134, 4-[4-(3-{2-chloro-3-[2-(dimethylamino)ethoxy]phenyl}-4-(pyrimidin-2-yl)-1,2-oxazol-5-yl)-5-(trifluoromethyl)-1H-pyrazol-1-yl]-2-methylbutan-2-ol]
[1]
  IC50: < 0.05 µM
[2]
  half-life at 1 μM: > 100 min
[3]
  IC50: 0.05 to 0.5 µM
[4]
  IC50: 0.05 to 0.5 µM

## CC(C)(O)CCn1ncc(-c2onc(-c3cccc(OCCN4CCCC4)c3Cl)c2-c2ncccn2)c1C(F)(F)F [Example 135, 4-[4-(3-{2-chloro-3-[2-(pyrrolidin-1-yl)ethoxy]phenyl}-4-(pyrimidin-2-yl)-1,2-oxazol-5-yl)-5-(trifluoromethyl)-1H-pyrazol-1-yl]-2-methylbutan-2-ol]
[1]
  IC50: 0.05 to 0.5 µM
[2]
  half-life at 1 μM: 40 to 100 min
[3]
  IC50: < 0.05 µM
[4]
  IC50: 0.05 to 0.5 µM

## CCN(CC)CCOc1cccc(-c2noc(-c3cnn(CCC(C)(C)O)c3C(F)(F)F)c2-c2ncccn2)c1Cl [Example 137, 4-[4-(3-{2-chloro-3-[2-(diethylamino)ethoxy]phenyl}-4-(pyrimidin-2-yl)-1,2-oxazol-5-yl)-5-(trifluoromethyl)-1H-pyrazol-1-yl]-2-methylbutan-2-ol]
[1]
  IC50: 0.05 to 0.5 µM
[2]
  half-life at 1 μM: 10 to 40 min
[3]
  IC50: 0.05 to 0.5 µM
[4]
  IC50: 0.05 to 0.5 µM

## CC(C)(O)CCn1ncc(-c2onc(-c3cccc(OCCN4CCS(=O)(=O)CC4)c3Cl)c2-c2ncccn2)c1C(F)(F)F [Example 138, 4-[2-(2-chloro-3-{5-[1-(3-hydroxy-3-methylbutyl)-5-(trifluoromethyl)-1H-pyrazol-4-yl]-4-(pyrimidin-2-yl)-1,2-oxazol-3-yl}phenoxy)ethyl]-thiomorpholine-1,1-dione]
[1]
  IC50: < 0.05 µM
[2]
  half-life at 1 μM: 2 to 9.99 min
[3]
  IC50: 0.05 to 0.5 µM
[4]
  IC50: < 0.05 µM

## CC(C)(O)CCn1ncc(-c2onc(-c3cccc(OCCN4CC5(COC5)C4)c3Cl)c2-c2ncccn2)c1C(F)(F)F [Example 139, 4-(4-{3-[2-chloro-3-(2-{2-oxa-6-azaspiro[3.3]heptan-6-yl}ethoxy)phenyl]-4-(pyrimidin-2-yl)-1,2-oxazol-5-yl}-5-(trifluoromethyl)-1H-pyrazol-1-yl)-2-methylbutan-2-ol]
[1]
  IC50: < 0.05 µM
[2]
  half-life at 1 μM: 10 to 40 min
[3]
  IC50: 0.05 to 0.5 µM
[4]
  IC50: < 0.05 µM

## CC(C)(O)CCn1ncc(-c2onc(-c3cccc(OCCCN4CCS(=O)(=O)CC4)c3Cl)c2-c2ncccn2)c1C(F)(F)F [Example 141, 4-[3-(2-chloro-3-{5-[1-(3-hydroxy-3-methylbutyl)-5-(trifluoromethyl)-1H-pyrazol-4-yl]-4-(pyrimidin-2-yl)-1,2-oxazol-3-yl}phenoxy)propyl]-thiomorpholine-1,1-dione]
[1]
  IC50: < 0.05 µM
[2]
  half-life at 1 μM: 2 to 9.99 min
[3]
  IC50: < 0.05 µM
[4]
  IC50: < 0.05 µM

## Cc1c(-c2onc(-c3cccc(OCCN(C)C)c3Cl)c2-c2ncccn2)cnn1CCC(C)(C)O [Example 145, 4-[4-(3-{2-chloro-3-[2-(dimethylamino)ethoxy]phenyl}-4-(pyrimidin-2-yl)-1,2-oxazol-5-yl)-5-methyl-1H-pyrazol-1-yl]-2-methylbutan-2-ol]
[1]
  IC50: 0.5 to 5 µM
[2]
  half-life at 1 μM: > 100 min
[3]
  IC50: 0.05 to 0.5 µM
[4]
  IC50: 0.5 to 5 µM

## Cc1c(-c2onc(-c3cccc(OCCN4CCCC4)c3Cl)c2-c2ncccn2)cnn1CCC(C)(C)O [Example 146, 4-[4-(3-{2-chloro-3-[2-(pyrrolidin-1-yl)ethoxy]phenyl}-4-(pyrimidin-2-yl)-1,2-oxazol-5-yl)-5-methyl-1H-pyrazol-1-yl]-2-methylbutan-2-ol]
[1]
  IC50: 0.05 to 0.5 µM
[2]
  half-life at 1 μM: > 100 min
[3]
  IC50: 0.05 to 0.5 µM
[4]
  IC50: 0.5 to 5 µM

## COC(=O)c1c(-c2cccc(OCCN3CCOCC3)c2Cl)noc1-c1cnn(C[C@H](C)O)c1C(F)(F)F [Example 148, methyl 3-{2-chloro-3-[2-(morpholin-4-yl)ethoxy]phenyl}-5-{1-[(2S)-2-hydroxypropyl]-5-(trifluoromethyl)-1H-pyrazol-4-yl}-1,2-oxazole-4-carboxylate]
[1]
  IC50: < 0.05 µM
[2]
  half-life at 1 μM: 2 to 9.99 min
[3]
  IC50: < 0.05 µM
[4]
  IC50: < 0.05 µM
